Test results from patent publication US11091428B2 (HAPLOGEN GMBH, priority 2016, dated 2021).
Like-named read-outs stand apart in the source and are kept apart here.

How the values were obtained:
PLA2G16 = target: T1, PLA2G16 (Homo sapiens, UniProt P53816); experiment: Enzyme activity assay for PLA2G16 (Red/Green BODIPY PC-A2 fluorescence); assay type: biochemical; settings: His-tagged PLA2G16, 4 min pre-incubation, 2 nM to 50 μM; read-out: IC50 values of the compounds determined in the enzyme activity assay for PLA2G16
T1 construct: Hexa-His (N); made in house; host or cells: E. coli BL21(DE3)
T1 sequence (P53816 1-162): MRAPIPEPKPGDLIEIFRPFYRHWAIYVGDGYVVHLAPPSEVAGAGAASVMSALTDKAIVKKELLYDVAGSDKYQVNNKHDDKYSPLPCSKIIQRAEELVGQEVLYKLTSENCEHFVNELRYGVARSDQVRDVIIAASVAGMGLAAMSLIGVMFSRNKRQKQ
Method in brief: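 N-His-tagged human PLA2G16 from E. coli, Ni-NTA purified. Pre-incubated 4 min with compound (2 nM–50 μM final) in pH 8.5 Tris/NaCl buffer with 5 mM glutathione, then BODIPY PC-A2 in DOPC/DOPG/cholesterol vesicles added. Fluorescence (ex 480/em 530 nm) increase over 10 min taken as activity; IC50 by non-linear regression.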

[1] = test system: picornaviruses (CVB1, HRV-A2, HRV-A23, EV-68); experiment: Anti-picornavirus cytopathic effect (CPE) reduction assay on HeLa H1 cells; assay type: cell-based; settings: HeLa H1 cells, 48 h, category from averaging the EC50 values from four picornaviruses (CVB1, HRV-A2, HRV-A23, EV68), read-out: EC50 values of the compounds determined in the anti-picornavirus assay
Method in brief: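 HeLa H1 cells pre-treated 2 h with serially diluted compound in DMEM/2% FBS, then infected at an MOI giving full CPE in 2 days. After 48 h at 37° C, viability read by CellTiterBlue fluorescence (ex 560/em 590 nm), normalised to infected and uninfected vehicle controls; EC50 by non-linear regression, category from mean of four viruses.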

| SMILES | IC50 (PLA2G16) [nM] | EC50 ([1]; Enterovirus B, HeLa H1, 48 h) [nM] | EC50 [1] [nM] |
| --- | --- | --- | --- |
| CC(C(=O)C(=O)NCc1cccc(Cl)c1)N(C)C=O (centres unmarked) [FP 69, N-[(3-Chlorophenyl)methyl]-3-(N-methylformamido)-2-oxobutanamide] | 1000 to 10000 | > 10000 |  |
| CC(=O)NCCCCCCCNC(=O)C(=O)C1CCC(=O)N1Cc1ccccc1 (centres unmarked) [FP 326, 2-(1-Benzyl-5-oxopyrrolidin-2-yl)-N-(7-acetamidoheptyl)-2-oxoacetamide] | < 1000 | 1000 to 10000 |  |
| N#Cc1ccc(CN2C(=O)CCC2C(=O)C(=O)NCC2CC2)cc1 (centres unmarked) [FP 233, 2-{1-[(4-Cyanophenyl)methyl]-5-oxopyrrolidin-2-yl}-N-(cyclopropylmethyl)-2-oxoacetamide] | < 1000 | 1000 to 10000 |  |
| CC(NC(=O)c1ccc(Cl)cc1)C(=O)C(=O)NCC1CC1 (centres unmarked) [FP 170, 3-[(4-Chlorophenyl)formamido]-N-(cyclopropylmethyl)-2-oxobutanamide] | < 1000 | 1000 to 10000 |  |
| CC(NC(=O)c1ccccc1Br)C(=O)C(=O)NCC1CC1 (centres unmarked) [FP 166, 3-[(2-Bromophenyl)formamido]-N-(cyclopropylmethyl)-2-oxobutanamide] | < 1000 | 1000 to 10000 |  |
| O=C(NC1CCC1)C(=O)[C@H]1CCC(=O)N1Cc1ccccc1 [FP 237, 2-[(2R)-1-Benzyl-5-oxopyrrolidin-2-yl]-N-cyclobutyl-2-oxoacetamide] | < 1000 | < 1000 |  |
| O=C(NCCO)C(=O)C1CCC(=O)N1Cc1ccc(Cl)cc1 (centres unmarked) [FP 256, 2-{1-[(4-Chlorophenyl)methyl]-5-oxopyrrolidin-2-yl}-N-(2-hydroxyethyl)-2-oxoacetamide] | < 1000 | 1000 to 10000 |  |
| O=C(NCCN1CCCCC1=O)C(=O)[C@H]1CCC(=O)N1Cc1ccccc1 [FP 292, 2-[(2R)-1-Benzyl-5-oxopyrrolidin-2-yl]-2-oxo-N-[2-(2-oxopiperidin-1-yl)ethyl]acetamide] | < 1000 | 1000 to 10000 |  |
| O=C(NCC1CC1)C(=O)C1CCC(=O)N1Cc1ccc(F)cc1 (centres unmarked) [FP 241, N-(Cyclopropylmethyl)-2-{1-[(4-fluorophenyl)methyl]-5-oxopyrrolidin-2-yl}-2-oxoacetamide] | < 1000 | < 1000 |  |
| Cc1ccccc1C(=O)NC(C)C(=O)C(=O)NCC1CC1 (centres unmarked) [FP 156, N-(Cyclopropylmethyl)-3-[(2-methylphenyl)formamido]-2-oxobutanamide] | < 1000 | 1000 to 10000 |  |
| COc1ccccc1OC(C)C(=O)C(=O)NCc1cccc(Cl)c1 (centres unmarked) [FP 133, N-[(3-Chlorophenyl)methyl]-3-(2-methoxyphenoxy)-2-oxobutanamide] | < 1000 | 1000 to 10000 |  |
| CCC1CC(=O)N(Cc2ccccc2)C1C(=O)C(=O)NC1CC1 (centres unmarked) [FP 343, 2-(1-Benzyl-3-ethyl-5-oxopyrrolidin-2-yl)-N-cyclopropyl-2-oxoacetamide] | < 1000 | < 1000 |  |
| COc1ccccc1N(C=O)C(C)C(=O)C(=O)NCC(C)(C)C (centres unmarked) [FP 101, N-(2,2-Dimethylpropyl)-3-[N-(2-methoxyphenyl)formamido]-2-oxobutanamide] | < 1000 | 1000 to 10000 |  |
| CC(=O)NCCNC(=O)C(=O)C1CCC(=O)N1Cc1ccc(Cl)cc1 (centres unmarked) [FP 243, 2-{1-[(4-Chlorophenyl)methyl]-5-oxopyrrolidin-2-yl}-N-(2-acetamidoethyl)-2-oxoacetamide] | 1000 to 10000 | > 10000 |  |
| O=C(NCC1CC1)C(=O)C1CCC(=O)N1Cc1ccc(Cl)cc1 (centres unmarked) [FP 203, 2-{1-[(4-Chlorophenyl)methyl]-5-oxopyrrolidin-2-yl}-N-(cyclopropylmethyl)-2-oxoacetamide] | < 1000 | < 1000 |  |
| CC(C)C(C(=O)C(=O)NCC1CC1)N(C=O)CC(C)(C)C (centres unmarked) [FP 31, N-(Cyclopropylmethyl)-3-[N-(2,2-dimethylpropyl)formamido]-4-methyl-2-oxopentanamide] | < 1000 | 1000 to 10000 |  |

| SMILES | IC50 (PLA2G16) [nM] | EC50 ([1]; Enterovirus B, HeLa H1, 48 h) [nM] | EC50 [1] [nM] |
| --- | --- | --- | --- |
| CC(NC(=O)c1ccccc1)C(=O)C(=O)NCC1CCCC1 (centres unmarked) [FP 180, N-(Cyclopentylmethyl)-2-oxo-3-(phenylformamido)butanamide] | < 1000 | 1000 to 10000 |  |
| CC(C(=O)C(=O)NCC1CCC1)N(C=O)Cc1ccccc1 (centres unmarked) [FP 201, 3-(N-Benzylformamido)-N-(cyclobutylmethyl)-2-oxobutanamide] | < 1000 | < 1000 |  |
| CC1CC(=O)N(Cc2ccccc2)[C@@H]1C(=O)C(=O)NC1CC1 (single isomer, unassigned) [FP 339] | 1000 to 10000 |  | > 10000 |
| Cc1cccc(C(=O)NC(C)C(=O)C(=O)NCC2CC2)c1 (centres unmarked) [FP 171, N-(Cyclopropylmethyl)-3-[(3-methylphenyl)formamido]-2-oxobutanamide] | 1000 to 10000 | > 10000 |  |
| O=C(NCCC1CC1)C(=O)C1CCC(=O)N1Cc1ccccc1 (centres unmarked) [FP 307, 2-(1-Benzyl-5-oxopyrrolidin-2-yl)-N-(2-cyclopropylethyl)-2-oxoacetamide] | < 1000 | < 1000 |  |
| COc1ccccc1N(C=O)C(C)C(=O)C(=O)NCCc1cccc(Cl)c1 (centres unmarked) [FP 97, N-[2-(3-Chlorophenyl)ethyl]-3-[N-(2-methoxyphenyl)formamido]-2-oxobutanamide] | < 1000 | < 1000 |  |
| O=CN(Cc1ccccc1)[C@@H](Cc1c[nH]cn1)C(=O)C(=O)NCC1CC1 [FP 119, (3S)-3-(N-Benzylformamido)-N-(cyclopropylmethyl)-4-(1H-imidazol-4-yl)-2-oxobutanamide] | < 1000 | > 10000 |  |
| O=C(NCC1CC1)C(=O)C1CCC(=O)N1Cc1ccccc1 (centres unmarked) [FP 138, 2-(1-Benzyl-5-oxopyrrolidin-2-yl)-N-(cyclopropylmethyl)-2-oxoacetamide] | < 1000 | < 1000 |  |
| O=C(NCCNC(=O)C1CCC1)C(=O)[C@H]1CCC(=O)N1Cc1ccccc1 [FP 332, 2-[(2R)-1-Benzyl-5-oxopyrrolidin-2-yl]-N-[2-(cyclobutylformamido)ethyl]-2-oxoacetamide] | < 1000 | 1000 to 10000 |  |
| CC(C)(O)CNC(=O)C(=O)C1CCC(=O)N1Cc1ccc(Cl)cc1 (centres unmarked) [FP 274, 2-{1-[(4-Chlorophenyl)methyl]-5-oxopyrrolidin-2-yl}-N-(2-hydroxy-2-methylpropyl)-2-oxoacetamide] | < 1000 | 1000 to 10000 |  |
| COc1ccccc1N(C=O)C(CC(C)C)C(=O)C(=O)NCc1cccc(Cl)c1 (centres unmarked) [FP 13, N-[(3-Chlorophenyl)methyl]-3-[N-(2-methoxyphenyl)formamido]-5-methyl-2-oxohexanamide] | < 1000 | < 1000 |  |
| C[C@@H]1CC(=O)N(Cc2ccccc2)[C@H]1C(=O)C(=O)NC1CC1 (single isomer, unassigned) [FP 340] | < 1000 | < 1000 |  |
| COc1cccc(Cl)c1C(=O)NC(C)C(=O)C(=O)NCC1CC1 (centres unmarked) [FP 212, 3-[(2-Chloro-6-methoxyphenyl)formamido]-N-(cyclopropylmethyl)-2-oxobutanamide] | < 1000 | 1000 to 10000 |  |
| CC(C(=O)C(=O)NCCOC1CCCCC1)N(C=O)C1CCCCC1 (centres unmarked) [FP 55, 3-(N-Cyclohexylformamido)-N-[2-(cyclohexyloxy)ethyl]-2-oxobutanamide] | < 1000 | < 1000 |  |
| O=C(NC1CC(F)(F)C1)C(=O)[C@H]1CCC(=O)N1Cc1ccccc1 [FP 268, 2-[(2R)-1-Benzyl-5-oxopyrrolidin-2-yl]-N-(3,3-difluorocyclobutyl)-2-oxoacetamide] | < 1000 | < 1000 |  |
